In one assay the target is T1, K88 fimbriae (Escherichia coli, UniProt P14190).
T1 construct: In the experiments I^125-labelled K88 fimbriae at a concentration of 0.5 mg/ml in PBS were used; made in house; host or cells: E. coli O149 K88+ (native fimbriae isolated from the bacteria)
Kind of assay: Inhibition of adherence of I125-labelled K88-fimbriae to brush border membranes from pig small intestine. Type of assay: binding, E.coli. As to conditions: for inhibited the adherence of K88 fimbriae to the brush border membranes: 0.5 ml oligosaccharide solution 5 mg/ml in PBS, 0.5 ml I125-labelled K88 fimbriae 0.5 mg/ml, 1 ml brush border membranes 2 · 10^6 cells/ml, 37°C; for inhibition at 5000 µg/mL: read-out: inhibited the adherence of K88 fimbriae to the brush border membranes. The protocol:
In the experiments I^125-labelled K88 fimbriae at a concentration of 0.5 mg/ml in PBS were used. Moreover, brush border membranes prepared according to Sellwood et al at a concentration of 2 · 10^6 cells/ml in PBS were used.
Oligosaccharides tested for their inhibiting ability were dissolved in PBS to a concentration of 5 mg/ml.
In the inhibition tests 0.5 ml I125-labelled K88 fimbriae was incubated with 0.5 ml oligosaccharide solution at 37°C for 30 minutes, 1 ml of the suspension of brush border membranes being then added. After incubation for another 60 minutes at 37°C the mixture was centrifuged for 15 minutes at 600 x g, the radioactivity being then measured in the supernatant. As a control 1 ml of PBS was used.

The subject of another assay is E.coli. As to the kind of experiment: Disinfection: removal of bacteria from an infected surface. As to conditions: 0.1 percent by weight aqueous solution applied by cotton pad onto a surface infected by E.coli. The protocol:
By disinfection is here primarily intended removal of bacteria from a surface, for example a wound.
A 0.1 percent by weight aqueous solution of the compound a-D-Galp-(1-3)-D-Gal is prepared and applied by means of a cotton pad onto a surface infected by E.coli.

T1 sequence (P14190 22-283 limits assumed): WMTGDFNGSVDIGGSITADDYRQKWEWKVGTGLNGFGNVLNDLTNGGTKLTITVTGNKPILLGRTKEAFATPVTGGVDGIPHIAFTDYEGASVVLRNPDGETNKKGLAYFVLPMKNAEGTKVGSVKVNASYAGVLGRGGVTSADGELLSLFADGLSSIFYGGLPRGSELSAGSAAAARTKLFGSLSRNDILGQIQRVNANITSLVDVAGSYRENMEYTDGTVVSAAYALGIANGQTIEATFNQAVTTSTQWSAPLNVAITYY

In the case of `OC[C@H]1O[C@H](O[C@@H]2[C@H](O)[C@@H](O)C(O)O[C@@H]2CO)[C@H](O)[C@@H](O)[C@H]1O` (stereo partly drawn) [α-D-Galp-(1-4)-D-Gal, reference compound], the “inhibited the adherence of K88 fimbriae to the brush border membranes” value against K88 fimbriae was “inactive”.

Consider `OC[C@H]1O[C@H](O[C@H]2[C@@H](O)[C@@H](CO)OC(O)[C@@H]2O)[C@H](O)[C@@H](O)[C@H]1O` (stereo partly drawn) [α-D-Galp-(1-3)-D-Gal], for which the “removal of the bacterium from the surface” value in the assay with E.coli is listed as “effective removal”. At K88 fimbriae, the inhibition at 5000 µg/mL came out at 70%.

For the compound `OC[C@H]1O[C@H](O[C@H]2[C@@H](O)[C@@H](CO)O[C@H](O[C@H]3[C@@H](O)[C@@H](CO)O[C@H](O[C@H]4[C@@H](O)[C@@H](CO)OC(O)[C@@H]4O)[C@@H]3O)[C@@H]2O)[C@H](O)[C@@H](O)[C@H]1O` (stereo partly drawn) [α-D-Galp-(1-3)-α-D-Galp-(1-3)-α-D-Galp-(1-3)-D--Gal], on K88 fimbriae, the inhibition at 5000 µg/mL amounted to 73%.

Take `OC[C@H]1O[C@H](OC[C@H]2OC(O)[C@H](O)[C@@H](O)[C@H]2O)[C@H](O)[C@@H](O)[C@H]1O` (stereo partly drawn) [α-D-Galp-(1-6)-D-Gal, reference compound]: the “inhibited the adherence of K88 fimbriae to the brush border membranes” value on K88 fimbriae is “inactive”.

Take `OC[C@H]1O[C@H](O[C@H]2[C@@H](O)[C@@H](CO)O[C@H](O[C@H]3[C@@H](O)[C@@H](CO)OC(O)[C@@H]3O)[C@@H]2O)[C@H](O)[C@@H](O)[C@H]1O` (stereo partly drawn) [α-D-Galp-(1-3)-α-D-Galp-(1-3)-D-Gal]: the inhibition at 5000 µg/mL on K88 fimbriae turned out to be 79%.
